# Test results: US20220280594A1, “APPLICATION OF POLYPEPTIDE OR DERIVATIVE THEREOF” (CHENGDU HUITAI BIOMEDICINE CO., LTD., priority 2019, published 2022)
# Ends that are not written are not given here. PEG = not defined here
# Assays:
# [1] = effect on coagulation function in mice (ACT); format: in vivo, C57BL/6J mice; details: 200 mg/kg tail vein once a day until Day 24, blood on Day 25; control group 73.50 ± 7.15
# Procedure: C57BL/6J mice were used as experimental subjects (purchased from Chengdu Dashuo Experimental Animal Co., Ltd., male, weighing 16-17 g). Sterile saline or peptide drugs were injected via the tail vein once a day until Day 24. The mice in the control group were injected with sterile saline, and the mice in the administration groups (N1-N12) were injected with polypeptide drugs (200 mg/kg). There were three experimental animals in each group. On Day 25, the eyeballs were removed and blood ([…]) was taken. The coagulation function of the mice was detected by the Abbott i-STAT blood gas analyzer with the ACT test card.
# [2] = tested on: human liver adenocarcinoma cells (SK-HEP-1); assay: transwell invasion assay, SK-HEP-1 cells; format: cell-based; details: SK-HEP-1 transwell invasion, 10 μM, 24 hours; control group 767 ± 91
# In short: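 Serum-free SK-HEP-1 cells were seeded in matrigel-coated upper chambers over complete medium. After 4-5 h, peptide was added to the upper chamber at 10 μM final. Following 24 h at 37° C., invaded cells were fixed, crystal violet-stained, imaged and counted.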
# [3] = tested on: human liver adenocarcinoma cells (SK-HEP-1); assay: transwell migration assay, SK-HEP-1 cells; format: cell-based; details: SK-HEP-1 transwell migration, 10 μM, 24 hours; control group 1 782 ± 108, control group 2 768 ± 86
# In short: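 SK-HEP-1 cells in serum-free medium seeded in upper transwell chamber (2-3×10^5 cells/mL) over complete medium; after 4-5 h at 37 °C, 5% CO2, peptide added at 10 μM final in upper chamber. After 24 h, migrated cells fixed in methanol, crystal-violet stained, imaged and counted.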
# fibronectin = fibronectin expression in SK-HEP-1 cells (ELISA); format: cell-based, human; details: SK-HEP-1, 10 μM, 24 hours, control group 1.62 ± 0.09
# Procedure: SK-HEP-1 cells were cultured in vitro, cells in the logarithmic growth phase were collected, and the cells were seeded evenly in a 24-well plate at a density of 1-3×10^5 cells/well. The cells were cultured in a cell incubator for 4-5 h. PBS was added to the control group. PBS containing polypeptide or derivative thereof (N1-N12) was added to the treatment group. The final concentration of the polypeptide or derivative thereof in the well was 10 μM. After incubating for 24 hours, the cells were collected and the total protein was extracted. ELISA was used to detect the content of fibronectin in total protein.
# [4] = tested on: human lung cancer cells (A549) subcutaneous xenograft; assay: lung cancer subcutaneous xenograft animal model, intratumoral injection; format: in vivo, mice (BALB/c-nu/nu); details: intratumoral 5 mg/kg once every other day, 10 days; for Weight of tumor (g) (mean ± SD): control 1.45 ± 0.15; for Volume of tumor (mm^3) (mean ± SD): control 1269.32 ± 115.39
# In short: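 Female BALB/c-nu/nu mice (4–6 weeks) inoculated subcutaneously with about 2×10^6 A549 cells; treatment started at tumour volume >100 mm^3. Peptides given intratumorally at 5 mg/kg every other day for 10 days (N1–N12) or 20 days (N13–N32); tumour weight and volume measured at dissection.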
# [5] = tested on: human pancreatic cancer cells (PANC-1) subcutaneous xenograft; assay: pancreatic cancer subcutaneous xenograft animal model, intratumoral injection; format: in vivo, mice (BALB/c-nu/nu); details: PANC-1 xenograft, intratumoral 5 mg/kg once every other day, 25 days; for Weight of tumor (g) (mean ± SD): control 1.2 ± 0.11; for Volume of tumor (mm^3) (mean ± SD): control 1431.72 ± 174.33
# Procedure: Experimental animals: 4-6 weeks old female immunodeficiency mice (BALB/c-nu/nu, Beijing Vital River Laboratory Animal Technology Co., Ltd.).
# Subcutaneous xenograft animal model. The number of cells inoculated subcutaneously vin mice was about 2×10^6/200 μL. When the volume of the subcutaneous tumor was greater than 100 mm^3, the mice were randomly divided into groups and subjected to treatment. When the mass volume of the tumors in model control group reached 2000 mm^3 or the animal dies, the treatment ended. The animals were dissected, the tumors were taken out, and the weight and volume of the tumors were measured. During the period of the entire experiment, the mice were observed and the body weight was measured every other day.
# The method used in the efficacy test on the pancreatic cancer subcutaneous xenograft animal model was as described in Example 5. The pancreatic cancer cells were human pancreatic cancer cells (PANC-1), and the route of administration was intratumoral injection. The experimental groups were model control group and polypeptide or derivative thereof treatment groups (N1-N12). The drug dosage of the N1-N12 treatment group was 5mg/kg, once every other day, and the treatment time was 25 days.
substance,measurement,setting,value
"N8: SEQ ID NO: 1 with deletion of positions 15-18 and positions 3, 4 and 11 (YRFLAKENTQD)",Activated clotting time (s) (mean ± SD),[1],74 ± 8.92 s
same,"Number of cells (mean ± SD, P), invaded cells",[2],"277 ± 38,****"
same,"Number of cells (mean ± SD, P), migrated cells",[3],"139 ± 13,****"
same,"Relative protein level (mean ± SD, P), fibronectin",fibronectin,"1.33 ± 0.11,*"
same,Weight of tumor (g) (mean ± SD),[4],0.68 ± 0.11 g
same,Volume of tumor (mm^3) (mean ± SD),[4],783.99 ± 69.19 mm^3
same,Weight of tumor (g) (mean ± SD),[5],0.59 ± 0.11 g
same,Volume of tumor (mm^3) (mean ± SD),[5],769.54 ± 160.54 mm^3
N9: SEQ ID NO: 1 with deletion of positions 15-18 and PEG modification at the amino terminal ({PEG}-YRVRFLAKENVTQD; reading uncertain),Activated clotting time (s) (mean ± SD),[1],72.09 ± 8.07 s
same,"Number of cells (mean ± SD, P), invaded cells",[2],"288 ± 35,***"
same,"Number of cells (mean ± SD, P), migrated cells",[3],"174 ± 15,****"
same,"Relative protein level (mean ± SD, P), fibronectin",fibronectin,"1.33 ± 0.09,*"
same,Weight of tumor (g) (mean ± SD),[4],0.72 ± 0.09 g
same,Volume of tumor (mm^3) (mean ± SD),[4],781.14 ± 123.66 mm^3
same,Weight of tumor (g) (mean ± SD),[5],0.5 ± 0.09 g
same,Volume of tumor (mm^3) (mean ± SD),[5],765.6 ± 105.04 mm^3
N10: SEQ ID NO: 1 with deletion of positions 15-18 and 1-3 and PEG modification at the carboxyl terminal (RFLAKENVTQD-{PEG}; reading uncertain),Activated clotting time (s) (mean ± SD),[1],73.27 ± 7.36 s
same,"Number of cells (mean ± SD, P), invaded cells",[2],"460 ± 43,**"
same,"Number of cells (mean ± SD, P), migrated cells",[3],"54 ± 5,****"
same,"Relative protein level (mean ± SD, P), fibronectin",fibronectin,"1.3 ± 0.05,**"
same,Weight of tumor (g) (mean ± SD),[4],0.75 ± 0.07 g
same,Volume of tumor (mm^3) (mean ± SD),[4],705.83 ± 182.18 mm^3
same,Weight of tumor (g) (mean ± SD),[5],0.57 ± 0.11 g
same,Volume of tumor (mm^3) (mean ± SD),[5],667.99 ± 188.73 mm^3
N11: SEQ ID NO: 1 with deletion of positions 15-18 and 1-3 and PEG modification at the amino terminal ({PEG}-RFLAKENVTQD; reading uncertain),Activated clotting time (s) (mean ± SD),[1],75.18 ± 7.99 s
same,"Number of cells (mean ± SD, P), invaded cells",[2],"398 ± 36,***"
same,"Number of cells (mean ± SD, P), migrated cells",[3],"80 ± 6,****"
same,"Relative protein level (mean ± SD, P), fibronectin",fibronectin,"1.39 ± 0.01,*"
same,Weight of tumor (g) (mean ± SD),[4],0.73 ± 0.08 g
same,Volume of tumor (mm^3) (mean ± SD),[4],756.57 ± 204.03 mm^3
same,Weight of tumor (g) (mean ± SD),[5],0.62 ± 0.12 g
same,Volume of tumor (mm^3) (mean ± SD),[5],785.02 ± 147.38 mm^3
N12: SEQ ID NO: 1 with deletion of position 18 and positions 1-2 (VRFLAKENVTQDAED),Activated clotting time (s) (mean ± SD),[1],75.55 ± 7.61 s
same,"Number of cells (mean ± SD, P), invaded cells",[2],"308 ± 42,***"
same,"Number of cells (mean ± SD, P), migrated cells",[3],"405 ± 49,**"
same,"Relative protein level (mean ± SD, P), fibronectin",fibronectin,"1.23 ± 0.07,**"
same,Weight of tumor (g) (mean ± SD),[4],0.73 ± 0.09 g
same,Volume of tumor (mm^3) (mean ± SD),[4],726.15 ± 144.96 mm^3
same,Weight of tumor (g) (mean ± SD),[5],0.71 ± 0.09 g
same,Volume of tumor (mm^3) (mean ± SD),[5],863.2 ± 129.61 mm^3
